# Source: patent publication US9145351B2, “Azole derivatives, methods for producing the same, intermediate thereof, agro-horticultural agents” (KUREHA CORPORATION, priority 2009, dated 2015)
# Assays:
# [1] = tested on: Puccinia recondita; assay: Efficacy test against wheat brown rust, 1 mg/L (Experimental Example 10); type: in vivo; details: 1 g/ha (1 mg/L sprayed at 1,000 L/ha)
# [2] = tested on: Puccinia recondita; assay: Efficacy test against wheat brown rust, 100 mg/L and 10 mg/L (Experimental Example 2); type: in vivo; details: nine to 14 days after inoculation; for efficacy compared with compound (1): 10 mg/L sprayed at 1,000 L/ha; for pest or weed control at 100 µg/mL: Puccinia recondita, 336 h, 100 mg/L sprayed at 1,000 L/ha, read-out: Protective value
# Experimental: Onto a wheat plant (variety: NORIN No. 61) grown to the two-leaf phase using a square plastic pot (6 cm×6 cm), a wettable formulation such as Formulation Example 1 which was diluted and suspended in water at a certain concentration (100 mg/L and 10 mg/L) was sprayed at a rate of 1,000 L/ha. The sprayed leaves were air-dried, and inoculated with spore suspension of Puccinia recondita (adjusted at 200 spores/vision, […] was added at 60 ppm) by spraying, and kept at 25 degrees C. and a high humidity for 48 hours. Thereafter, the plant was kept in a greenhouse. Nine to 14 days after inoculation, the wheat brown rust lesion degree was investigated, and the protective value was calculated by the following equation. Protective value (%)=(1-lesion degree in sprayed plot/lesion degree in unsprayed plot)×100
# [3] = tested on: Septoria tritici; assay: Assay for fungicidal effect on Septoria tritici, plate medium 1.25 mg/L (Experimental Example 9); type: cell-based; details: for inhibition at 1.25 µg/mL: Zymoseptoria tritici, read-out: growth inhibition grade
# Experimental: Each inventive compound was dissolved in 2 ml of dimethyl sulfoxide. 0.6 ml of this solution was added to 60 nil of a PDA medium (potato dextrose agar medium) at about 60 degrees C., which was mixed thoroughly in a 100-ml conical flask, and poured into a dish, where it was solidified, thereby obtaining a plate medium containing the inventive compound at 50 mg/L and 5 mg/L. On the other hand, a subject microorganism previously cultured on a plate medium was cut out using a cork borer whose diameter was 4 mm, and inoculated to the test compound-containing plate medium described above. […] The growth degree of the microorganism on the test compound-containing plate medium thus observed was compared with the growth degree of the microorganism in the untreated group, and % mycelial growth inhibition was calculated by the following equation. R=100(dc−dt)/dc wherein R=% mycelial extension inhibition, dc=flora diameter in untreated plate, dt=flora diameter in treated plate. The results obtained as described above were evaluated as one of the 5 grades according to the following criteria. […] In this Experimental Example, the fungicidal effects of the inventive compounds on Septoria tritici were examined by the methods described in the Experimental Example 5. In this Experimental Example, the inventive compounds were diluted at 1.25 mg/L.
# [4] = tested on: Mucor sp.; assay: Plate medium assay, industrial material deteriorating microorganism, Mucor (Experimental Example 5); type: cell-based; details: treatment at 50 mg/l, PDA plate medium, read-out: growth inhibition grade
# Experimental: (§1) In this Experimental Example, the fungicidal effects of the inventive compounds on various phytopathogenic fungi for plants and hazardous microorganism for industrial materials were examined by the methods described below. Each inventive compound was dissolved in 2 ml of dimethyl sulfoxide. 0.6 ml of this solution was added to 60 nil of a PDA medium (potato dextrose agar medium) at about 60 degrees C., which was mixed thoroughly in a 100-ml conical flask, and poured into a dish, where it was solidified, thereby obtaining a plate medium containing the inventive compound at 50 mg/L and 5 mg/L. On the other hand, a subject microorganism previously cultured on a plate medium was cut out using a cork borer whose diameter was 4 mm, and inoculated to the test compound-containing plate medium described above. […] The growth degree of the microorganism on the test compound-containing plate medium thus observed was compared with the growth degree of the microorganism in the untreated group, and % mycelial growth inhibition was calculated by the following equation. R=100(dc-dt)/dc wherein R=% mycelial extension inhibition, dc=flora diameter in untreated plate, dt=flora diameter in treated plate. The results obtained as described above were evaluated as one of the 5 grades according to the following criteria.
# [5] = tested on: Botrytis cinerea; assay: Efficacy test against cucumber gray mold (Experimental Example 1); type: in vivo; details: 96 h, four days after inoculation, read-out: Protective value; for pest or weed control at 50 µg/mL: 50 mg/L sprayed at 1,000 L/ha; for pest or weed control at 100 µg/mL: 100 mg/L sprayed at 1,000 L/ha
# Experimental: Onto a cucumber (variety:SHARP1) plant in its cotyledon phase grown using a square plastic pot (6 cm×6 cm), a wettable formulation such as Formulation Example 1 which was diluted and suspended in water at a certain concentrations (100 mg/L and 50 mg/L) was sprayed at a rate of 1,000 L/ha. The sprayed leaves were air-dried, and loaded with a paper disc (8 mm in diameter) soaked in a spore suspension of Botrytis cinerea, and kept at 20 degrees C. and a high humidity. Four days after inoculation, the cucumber gray mold lesion degree was investigated, and the protective value was calculated by the following equation. Protective value (%)=(1−mean lesion degree in sprayed plot/mean lesion degree in unsprayed plot)×100
# [6] = tested on: Coriolus versicolor; assay: Plate medium assay, wood denaturing microorganism Kawaratake (Experimental Example 5); type: cell-based; details: Trametes versicolor; treatment at 50 mg/l, PDA plate medium; read-out: growth inhibition grade
# Experimental: as §1
# [7] = tested on: Septoria tritici; assay: Microplate test of biocidal effect on wheat Septoria blotch (Experimental Example 4); type: cell-based; details: Zymoseptoria tritici, 240 h; % mycelium growth inhibition, absorbance 550 nm, 20 degrees C. for about 10 days; read-out: activity level (EC80)
# Experimental: A spore suspension of wheat Septoria blotch (Septoria tritici) (spore concentration: 1×10^6 cells/ml) was prepared, and subjected to 100-fold dilution with a PD medium. A flat 96-well microplate was provided and 1 microliter of the test compound solution formed by dissolution in dimethyl sulfoxide (DMSO) at a concentration 100 times the test concentration was dispensed to the microplate, and then 100 microliter of the medium containing the spore was added and stirred thoroughly. […] R=100×(dc−dt)/dc: R: % mycelium growth inhibition dc: Absorbance of non-treatment zone dt: Absorbance of treatment zone
# [8] = tested on: Penicillium sp.; assay: Plate medium assay, industrial material deteriorating microorganism, Penicillium (Experimental Example 5); type: cell-based; details: treatment at 50 mg/l, PDA plate medium, read-out: growth inhibition grade
# Experimental: as §1
# [9] = tested on: Aspergillus sp.; assay: Plate medium assay, industrial material deteriorating microorganism, Aspergillus (Experimental Example 5); type: cell-based; details: treatment at 50 mg/l, PDA plate medium, read-out: growth inhibition grade
# Experimental: as §1
# [10] = tested on: Cladosporium sp.; assay: Plate medium assay, industrial material deteriorating microorganism, Cladosporium (Experimental Example 5); type: cell-based; details: treatment at 50 mg/l, PDA plate medium, read-out: growth inhibition grade
# Experimental: as §1
# [11] = tested on: Curvularia sp.; assay: Plate medium assay, industrial material deteriorating microorganism, Curvularia (Experimental Example 5); type: cell-based; details: treatment at 50 mg/l, PDA plate medium, read-out: growth inhibition grade
# Experimental: as §1
# [12] = tested on: Fusarium graminearum; assay: whole plant or invertebrate; type: in vivo; details: in Triticum aestivum, 168 h, read-out: Protective value
# [13] = tested on: Aureobasidium sp.; assay: Plate medium assay, industrial material deteriorating microorganism, Aureobasidium (Experimental Example 5); type: cell-based; details: treatment at 50 mg/l, PDA plate medium, read-out: growth inhibition grade
# Experimental: as §1
SMILES,lesion degree [1],efficacy compared with compound (1) [2],growth inhibition grade [3],inhibition at 50 µg/mL [4] [%],pest or weed control at 50 µg/mL [5] [%],pest or weed control at 100 µg/mL [5] [%],inhibition at 50 µg/mL [6] [%],EC80 [7] [µg/mL],inhibition at 50 µg/mL [8] [%],inhibition at 50 µg/mL [9] [%],inhibition at 50 µg/mL [10] [%],inhibition at 50 µg/mL [11] [%],pest or weed control at 100 µg/mL [12] [%],pest or weed control at 500 µg/mL [12] [%],pest or weed control at 100 µg/mL [2] [%],inhibition at 50 µg/mL [13] [%],inhibition at 1.25 µg/mL [3] [%]
C[C@]1(CCl)CC[C@@H](Cc2ccc(F)cc2F)[C@]1(O)Cn1cncn1 (relative stereo) [Compound I-88],0.5 (Less than 1%),higher efficacy than that of compound (1),5 (% Mycerial growth inhibition of 80% or higher),,,,,,,,,,,,,,
"C[C@@]1(CCCl)CC[C@@H](Cc2ccc(Cl)cc2)[C@]1(O)Cn1cncn1 (racemic) [Compound I-104, (1RS,2SR,5SR)-5-(4-chlorobenzyl)-2-(2-chloroethyl)-2-methyl-1-(1H-1,2,4-triazol-1-ylmethyl)cyclopentanol]",,higher efficacy than that of compound (1),,60 to 80,≥ 80,≥ 80,60 to 80,≤ 0.2,60 to 80,60 to 80,60 to 80,60 to 80,≥ 80,≥ 90,≥ 90,60 to 80,
"C[C@]1(CCl)CC[C@@H](Cc2ccc(Cl)cc2)[C@]1(O)Cn1cncn1 (racemic) [Compound I-1, (1RS,2SR,5SR)-5-(4-chlorobenzyl)-2-chloromethyl-2-methyl-1-(1H-1,2,4-triazol-1-ylmethyl)cyclopentanol]",0.5 (Less than 1%),higher efficacy than that of compound (1),,60 to 80,≥ 80,≥ 80,60 to 80,≤ 0.2,60 to 80,60 to 80,60 to 80,60 to 80,≥ 80,≥ 90,≥ 90,60 to 80,> 80
CC1(C)CCC(Cc2ccc(Cl)cc2)C1(O)Cn1ncnc1S (racemic) [compound (2)],5 (50% or higher),,1 (% Mycerial growth inhibition of less than 20%),,,,,,,,,,,,,,
"CC(Cl)=C[C@@]1(C)CC[C@@H](Cc2ccc(Cl)cc2)[C@]1(O)Cn1cncn1 (racemic) [Compound I-15, (1RS,2RS,5SR)-5-(4-chlorobenzyl)-2-(2-chloropropenyl)-2-methyl-1-(1H-1,2,4-triazol-1-ylmethyl)cyclopentanol]",,higher efficacy than that of compound (1),,60 to 80,≥ 80,≥ 80,60 to 80,≤ 0.2,60 to 80,60 to 80,60 to 80,60 to 80,,≥ 90,≥ 90,60 to 80,
"C[C@]1(CCl)CC[C@@H](Cc2ccc(F)cc2)[C@]1(O)Cn1cncn1 (racemic) [Compound I-77, (1RS,2SR,5SR)-2-chloromethyl-5-(4-fluorobenzyl)-2-methyl-1-(1H-1,2,4-triazol-1-ylmethyl)cyclopentanol]",0.5 (Less than 1%),higher efficacy than that of compound (1),,60 to 80,≥ 80,≥ 80,60 to 80,≤ 0.2,60 to 80,60 to 80,60 to 80,60 to 80,≥ 80,≥ 90,≥ 90,60 to 80,> 80
"C[C@]1(CCl)CC[C@@H](Cc2cccc(Cl)c2)[C@]1(O)Cn1cncn1 (racemic) [Compound I-74, (1RS,2SR,5SR)-5-(3-chlorobenzyl)-2-chloromethyl-2-methyl-1-(1H-1,2,4-triazol-1-ylmethyl)cyclopentanol]",,higher efficacy than that of compound (1),,60 to 80,≥ 80,≥ 80,60 to 80,≤ 0.2,60 to 80,60 to 80,60 to 80,60 to 80,≥ 80,≥ 90,≥ 90,60 to 80,
"C[C@]1(CCl)CC[C@@H](Cc2ccccc2)[C@]1(O)Cn1cncn1 (racemic) [Compound I-73, (1RS,2SR,5SR)-2-chloromethyl-5-benzyl-2-methyl-1-(1H-1,2,4-triazol-1-ylmethyl)cyclopentanol]",0.5 (Less than 1%),higher efficacy than that of compound (1),,60 to 80,≥ 80,≥ 80,60 to 80,≤ 0.2,60 to 80,60 to 80,60 to 80,60 to 80,≥ 80,≥ 90,≥ 90,60 to 80,> 80
"C[C@]1(CBr)CC[C@@H](Cc2ccccc2)[C@]1(O)Cn1cncn1 (racemic) [Compound I-602, (1RS,2SR,5SR)-2-bromomethyl-5-benzyl-2-methyl-1-(1H-1,2,4-triazol-1-ylmethyl)cyclopentanol]",,higher efficacy than that of compound (1),,60 to 80,≥ 80,≥ 80,60 to 80,≤ 0.2,60 to 80,60 to 80,60 to 80,60 to 80,≥ 80,≥ 90,≥ 90,60 to 80,
